target: T1, Na+-dependent bile acid transportation system (intestinal bile acid transportation system in the terminal small intestine) (Oryctolagus cuniculus, UniProt Q28727); assay: Inhibition of Na+-dependent [3H]-taurocholate uptake in brush border membrane vesicles of the ileum of rabbits; assay type: biochemical; settings: quotient of IC50Na of reference taurochenedeoxycholate (TCDC) and IC50Na of test substance; rabbit ileum brush border membrane vesicles; 50 μM taurocholate
T1 construct: from tissue; host or cells: brush border membrane vesicles from the terminal 7/10 of the small intestine (ileum) of male New Zealand rabbits
T1 sequence (Q28727 1-347): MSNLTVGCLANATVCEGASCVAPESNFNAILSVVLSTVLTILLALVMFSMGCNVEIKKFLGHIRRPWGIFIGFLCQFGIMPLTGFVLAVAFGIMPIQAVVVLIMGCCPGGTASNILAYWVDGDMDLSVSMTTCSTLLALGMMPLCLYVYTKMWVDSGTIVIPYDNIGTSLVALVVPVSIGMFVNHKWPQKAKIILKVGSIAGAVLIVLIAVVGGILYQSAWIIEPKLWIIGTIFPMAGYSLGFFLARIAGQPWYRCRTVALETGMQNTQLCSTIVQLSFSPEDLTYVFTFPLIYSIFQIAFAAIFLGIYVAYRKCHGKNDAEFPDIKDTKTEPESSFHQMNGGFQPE
Procedure: Biological testing of the compounds of the present invention was carried out by determining the inhibition of [^3 H]-taurocholate uptake in brush border membrane vesicles of the ileum of rabbits. The inhibition test was carried out as follows:
1. Preparation of brush border membrane vesicles from the ileum of rabbits
Preparation of brush border membrane vesicles from the intestinal cells of the small intestine was carried out by the so-called Mg^2+ precipitation method. Male New Zealand rabbits (2 to 2.5 kg of body weight) were sacrificed by intravenous injection of 0.5 ml of T61®, an aqueous solution of 2.5 mg of tetracaine HCl, 100 mg of embutramide and 25 mg of mebezonium iodide. The small intestine was removed and rinsed with ice-cold physiological saline solution. The terminal 7/10 of the small intestine (measured in the oral-rectal direction, i.e., the terminal ileum, which contains the active Na^+ -dependent bile acid transportation system) was used for preparation of the brush border membrane vesicles. The intestines were frozen at -80° C. in plastic bags under nitrogen.
For preparation of the membrane vesicles, the frozen intestines were thawed at 30° C. in a water-bath. The mucosa was scraped off and suspended in 60 ml of ice-cold 12 mM TRIS/HCl buffer (pH 7.1)/300 mM mannitol, 5 mM EGTA/10 mg/l of phenylmethylsulfonyl fluoride/1 mg/l of trypsin inhibitor from soybeans (32 U/mg)/0.5 mg/l of trypsin inhibitor from the bovine lung (193 U/mg)/5 mg/l of bacitracin. After dilution to 300 ml with ice-cold distilled water, the mixture was homogenized with an Ultraturrax (18-rod, IKA Werk Staufen, Germany) at 75% of the maximum for 3 minutes, while cooling with ice. After addition of 3 ml of 1 M MgCl2 solution (final concentration 10 mM), the mixture was left to stand at 0° C. for exactly 1 minute. By addition of Mg^2+, the cell membranes aggregated, and precipitated with the exception of the brush border membranes. After centrifugation at 3000× g (5000 rpm, SS-34 rotor) for 15 minutes, the precipitate was discarded and the supernatant, which contained the brush border membrane, was centrifuged at 48,000× g (20,000 rpm, SS-34 rotor) for 30 minutes. The supernatant was discarded and the precipitate was rehomogenized in 60 ml of 12 mM TRIS/HCl buffer (pH 7.1)/60 mM mannitol, 5 mM EGTA with a Potter Elvejhem homogenizer (Braun, Melsungen, 900 rpm, 10 strokes). After addition of 0.1 ml of 1 M MgCl2 solution and an incubation time of 15 minutes at 0° C., the mixture was centrifuged again at 3000× g for 15 minutes. The supernatant was then centrifuged again at 48,000× g (20,000 rpm, SS-34 rotor) for 30 minutes. The precipitate was taken up in 30 ml of 10 mM TRIS/HEPES buffer (pH 7.4)/300 mM mannitol and resuspended homogeneously by 20 strokes in a Potter Elvejhem homogenizer at 1000 rpm. After centrifugation at 48,000× g (20,000 rpm, SS-34 rotor) for 30 minutes, the precipitate was taken up in 0.5 to 2 ml of TRIS/HEPES buffer (pH 7.4)/280 mM mannitol (final concentration 20 mg/ml) and resuspended with the aid of a tuberculin syringe with a 27-gauge needle. The vesicles were either used directly for transportation studies after the preparation or stored at -196° C. in 4 mg portions in liquid nitrogen.
2. Inhibition of the Na^+ -dependent [^3 H]taurocholate uptake in brush border membrane vesicles of the ileum
The uptake of substrates in the brush border membrane vesicles described above was determined by means of the so-called membrane filtration technique. 10 μl of the vesicle suspension (100 μg of protein) were pipetted as drops onto the wall of a polystyrene incubation tube (11×70 mm), which contained the incubation medium with the corresponding ligands (90 μl). […]

SMILES	IC5ONa -TCDC (μmol)/ IC50Na -compound (μmol)
CC(CCC(=O)O)C1CCC2C3C(O)CC4CC(NC(=O)CCC(=O)NC(CCCCNC(=O)OC(C)(C)C)C(=O)Nc5ccccc5C(Nc5ccccn5)C(c5ccccn5)C(O)c5ccccc5)CCC4(C)C3CC(O)C12C (centres unmarked) [Example 1j]	1.51
CC(CCC(=O)NCCS(=O)(=O)O)C1CCC2C3C(O)CC4CC(NC(=O)CCC(=O)NC(CCCCNC(=O)OC(C)(C)C)C(=O)Nc5ccccc5C(Nc5ccccn5)C(c5ccccn5)C(O)c5ccccc5)CCC4(C)C3CC(O)C12C (centres unmarked) [Example 1k]	1.59
COC(=O)CCC(C)C1CCC2C3C(O)CC4CC(NC(=O)CCC(=O)NC(Cc5ccccc5)C(=O)N5CCCC5C(=O)Nc5ccccc5C(Nc5ccccn5)C(c5ccccn5)C(O)c5ccccc5)CCC4(C)C3CC(O)C12C (centres unmarked) [Example 2d]	0.56
CC(CCC(=O)O)C1CCC2C3C(O)CC4CC(NC(=O)CCC(=O)NC(Cc5ccccc5)C(=O)N5CCCC5C(=O)Nc5ccccc5C(Nc5ccccn5)C(c5ccccn5)C(O)c5ccccc5)CCC4(C)C3CC(O)C12C (centres unmarked) [Example 2e]	1.96
C[C@H](CCC(=O)Nc1ccccc1[C@@H](Nc1ccccn1)[C@H](c1ccccn1)[C@H](O)c1ccccc1)[C@H]1CC[C@H]2[C@@H]3[C@H](O)C[C@@H]4C[C@H](O)CC[C@]4(C)[C@H]3C[C@H](O)[C@]12C [Example 4]	0.50
C[C@H](CCC(=O)O)[C@H]1CC[C@H]2[C@@H]3[C@H](O)C[C@@H]4C[C@@H](NC(=O)CCC(=O)Nc5ccc(C(Nc6ccccn6)C(c6ccccn6)C(O)c6ccccc6)cc5)CC[C@]4(C)[C@H]3C[C@H](O)[C@]12C (some centres unmarked) [Example 7]	0.15
CC(CCC(=O)O)C1CC[C@H]2[C@@H]3[C@H](O)C[C@@H]4C[C@@H](NC(=O)CCC(=O)Nc5ccccc5C(Nc5ccccn5)C(c5ccccn5)C(O)c5ccccc5)CC[C@]4(C)[C@H]3C[C@H](O)[C@]12C (some centres unmarked) [Example 8]	0.91
COC(=O)CCC(C)C1CCC2C3C(O)CC4CC(NC(=O)CCC(=O)NCCCCC(N)C(=O)Nc5ccccc5C(Nc5ccccn5)C(c5ccccn5)C(O)c5ccccc5)CCC4(C)C3CC(O)C12C (centres unmarked) [Example 9]	2.02
CC(CCC(=O)O)C1CCC2C3C(O)CC4CC(NC(=O)CCC(=O)NCCCCC(N)C(=O)Nc5ccccc5C(Nc5ccccn5)C(c5ccccn5)C(O)c5ccccc5)CCC4(C)C3CC(O)C12C (centres unmarked) [Example 10]	1.63
CC(CCC(=O)O)C1CCC2C3C(O)CC4CC(NC(=O)CCC(=O)NC(CCCCNC(=O)OC(C)(C)C)C(=O)Nc5ccccc5C(Nc5ccccn5)C(c5ccccn5)C(O)c5ccccc5)CCC4(C)C3CC(O)C12C (centres unmarked) [Example 12]	2.58
CC(CCC(=O)NCC(=O)O)C1CCC2C3C(O)CC4CC(NC(=O)CCC(=O)NC(CCCCNC(=O)OC(C)(C)C)C(=O)Nc5ccccc5C(Nc5ccccn5)C(c5ccccn5)C(O)c5ccccc5)CCC4(C)C3CC(O)C12C (centres unmarked) [Example 14]	1.52
